From patent US10760110B2, “Antibiotic testing and screening system” (priority 2017, dated 2020)
Where two headings read alike, the source gives them in different places.

Columns and labels:
[1] = tested on: A. baumannii KW1 and its GyrA/ParC mutants; test: Etest MIC of quinolones, GyrA and/or ParC mutations (Table 17); format: cell-based; conditions: Acinetobacter baumannii
Description: DNA fragments of the entire adeR, adeS, gyrA and parC along with their flanking regions were amplified from A. baumannii KW1 using PCR with specific primer pairs and then cloned into plasmid pUT-KB. The QuikChange site-directed mutagenesis kit (Stratagene) was used to generate mutations in the adeR, adeS, gyrA and parC genes in the plasmids using the methods described by the manufacturer. For homologous recombination, plasmids containing mutations in the adeR, adeS, gyrA or parC gene were transformed into E. coli S17-1 λpir^23 via electroporation and mobilized into A. baumannii KW1 via conjugation. Single-crossover strains were selected from Luria-Bertani (LB) plates supplemented with cefotaxime (1 μg/ml) and kanamycin ([…]), as the growth of non-A. baumannii contaminants is suppressed by cefotaxime (1 μg/ml). The kanamycin-resistant transconjugants were selected and the insertion of plasmids was verified via PCR. After incubation in 20 ml brain heart infusion (BHI) broth for 6 hours in the absence of kanamycin at 37° C., the fully grown cultures were spread onto LB plates supplemented with 10% sucrose. After the double crossover occurred, the sucrose-resistant and kanamycin-susceptible colonies were selected, and the gene mutations were confirmed via PCR.
(§1) The MICs of antibiotics were determined using the Etest (Biodisk AB, Sweden) according to the manufacturer's instructions. The MICs from the Etest, which fall between standard two-fold dilutions, were rounded up to the next highest two-fold value. The MICs of ceftazidime and cefotaxime against K. pneumoniae NVT1001 harbouring the pACYC177 plasmid with blaOXA-48 were further determined using a broth microdilution test according to the recommendations of the CLSI,^25 and the results were interpreted according to the breakpoints established by the CLSI in 2017.^25 Meanwhile, due to the lack of CLSI breakpoints in 2016 and 2017, the results for cephalothin were interpreted according to the breakpoints established by the CLSI in 2015,^26 and the results for moxifloxacin were interpreted according to the breakpoints established by the EUCAST in 2017.^27

[2] = tested on: K. pneumoniae NVT1001 strains with QnrB, QnrS or AAC(6′)-Ib-cr plasmids; test: Etest MIC of quinolones, GyrA/ParC mutations, ΔramR and/or QnrB, QnrS or AAC(6′)-Ib-cr (Table 12); format: cell-based; conditions: Klebsiella pneumoniae
Description: DNA fragments of the resistance genes along with their flanking regions were amplified from clinical plasmids via PCR with specific primer pairs. The resulting PCR fragments were digested and then cloned into the plasmid pACYC177 or pACYC184. The resulting plasmids were then transformed into K. pneumoniae strain NVT1001 via electroporation. The recombinant bacteria were plated onto LB agar plates containing kanamycin (50 mg/L) or chloramphenicol (50 mg/L), and the presence of the cloned gene was confirmed via PCR and DNA sequencing.
as §1

[3] = AAC(6′)-Ib-cr on pACYC177, S83I mutant
[4] = AAC(6′)-Ib-cr on pACYC177, S83I/D87N/S80I mutant
[5] = AAC(6′)-Ib-cr on pACYC177, S83I/S80I mutant
[6] = AAC(6′)-Ib-cr on pACYC177, WT (NVT1001), read-out: MIC
[7] = AAC(6′)-Ib-cr on pACYC177, ΔramR mutant
[8] = AAC(6′)-Ib-cr on pACYC177, ΔramR/S83I mutant
[9] = AAC(6′)-Ib-cr on pACYC177, ΔramR/S83I/D87N/S80I mutant
[10] = AAC(6′)-Ib-cr on pACYC177, ΔramR/S83I/S80I mutant
[11] = QnrB on pACYC177, S83I/D87N/S80I mutant
[12] = QnrB on pACYC177, S83I/S80I mutant
[13] = QnrB on pACYC177, WT (NVT1001), read-out: MIC
[14] = QnrB on pACYC177, ΔramR/S83I mutant
[15] = QnrB on pACYC177, ΔramR/S83I/D87N/S80I mutant
[16] = QnrB on pACYC177, ΔramR/S83I/S80I mutant
[17] = QnrS on pACYC177, S83I/D87N/S80I mutant
[18] = QnrS on pACYC177, S83I/S80I mutant
[19] = QnrS on pACYC177, WT (NVT1001), read-out: MIC
[20] = QnrS on pACYC177, ΔramR/S83I mutant
[21] = QnrS on pACYC177, ΔramR/S83I/D87N/S80I mutant
[22] = QnrS on pACYC177, ΔramR/S83I/S80I mutant
[23] = no supplemental plasmid, S83I mutant
[24] = no supplemental plasmid, S83I/D87N/S80I mutant
[25] = no supplemental plasmid, S83I/S80I mutant
[26] = no supplemental plasmid, WT (NVT1001), read-out: MIC
[27] = no supplemental plasmid, ΔramR mutant
[28] = no supplemental plasmid, ΔramR/S83I mutant
[29] = no supplemental plasmid, ΔramR/S83I/D87N/S80I mutant
[30] = no supplemental plasmid, ΔramR/S83I/S80I mutant

Measured: MIC

CCn1cc(C(=O)O)c(=O)c2cc(F)c(N3CCNCC3)cc21 [Norfloxacin, norfloxacin]
16 µg/mL: [2]; QnrB on pACYC177, ΔramR mutant | [2]; [25]
> 256 µg/mL: [1]; S83L/E84K mutant | [1]; S83L/G78C mutant | [1]; S83L/S80L mutant | [1]; S83L/S80W mutant | [1]; S83L/S80Y mutant | [2]; [4] | [2]; [9] | [2]; [10] | [2]; [11] | [2]; [12] | [2]; [15] | [2]; [16] | [2]; [21] | [2]; [22] | [2]; [29]
4 µg/mL: [1]; E84K mutant | [1]; G78C mutant | [1]; KW1, read-out: MIC | [1]; S80L mutant | [1]; S80Y mutant
32 µg/mL: [2]; QnrS on pACYC177, ΔramR mutant
2 µg/mL: [2]; [13] | [2]; [19] | [2]; [23] | [2]; [27]
0.25 µg/mL: [2]; [26]
128 µg/mL: [2]; [5] | [2]; [8] | [2]; [17] | [2]; [30]
64 µg/mL: [2]; [14] | [2]; [18] | [2]; [20] | [2]; [24]
8 µg/mL: [2]; [3] | [2]; [7] | [2]; QnrB on pACYC177, S83I mutant | [2]; QnrS on pACYC177, S83I mutant | [2]; [28]
24 µg/mL: [1]; S83L mutant
1 µg/mL: [2]; [6]
6 µg/mL: [1]; S80W mutant

CC1COc2c(N3CCN(C)CC3)c(F)cc3c(=O)c(C(=O)O)cn1c23 (stereo not shown) [Ofloxacin, ofloxacin]
2 µg/mL: [2]; [7] | [2]; [23] | [2]; [27]
16 µg/mL: [2]; QnrS on pACYC177, ΔramR mutant
32 µg/mL: [1]; S83L/G78C mutant | [2]; [4] | [2]; QnrB on pACYC177, ΔramR mutant | [2]; [24]
6 µg/mL: [1]; S83L mutant
4 µg/mL: [2]; [3] | [2]; [13] | [2]; [19] | [2]; [25]
0.5 µg/mL: [1]; S80L mutant | [1]; S80W mutant
0.38 µg/mL: [1]; E84K mutant | [1]; G78C mutant | [1]; KW1, read-out: MIC | [1]; S80Y mutant
0.25 µg/mL: [2]; [6] | [2]; [26]
> 32 µg/mL: [1]; S83L/E84K mutant | [1]; S83L/S80L mutant | [1]; S83L/S80W mutant | [1]; S83L/S80Y mutant | [2]; [8] | [2]; [9] | [2]; [10] | [2]; [11] | [2]; [12] | [2]; [14] | [2]; [15] | [2]; [16] | [2]; [17] | [2]; [18] | [2]; [20] | [2]; [21] | [2]; [22] | [2]; [28] | [2]; [29] | [2]; [30]
8 µg/mL: [2]; [5] | [2]; QnrB on pACYC177, S83I mutant | [2]; QnrS on pACYC177, S83I mutant
